The values that follow come from US8952042B2, “FXR (NR1H4) binding and activity modulating compounds” (Phenex Pharmaceuticals AG, priority 2009, dated 2015).

In general, EC50 refers to the concentration needed to bring the measured effect to its halfway point.

Data set [1] deals with T1, human FXR alpha ligand binding domain (Homo sapiens, UniProt Q96RI1).
T1 construct: made in house; host or cells: E. coli BL21(DE3), vector pDEST15
T1 sequence (Q96RI1 187-472 isoform Q96RI1-2): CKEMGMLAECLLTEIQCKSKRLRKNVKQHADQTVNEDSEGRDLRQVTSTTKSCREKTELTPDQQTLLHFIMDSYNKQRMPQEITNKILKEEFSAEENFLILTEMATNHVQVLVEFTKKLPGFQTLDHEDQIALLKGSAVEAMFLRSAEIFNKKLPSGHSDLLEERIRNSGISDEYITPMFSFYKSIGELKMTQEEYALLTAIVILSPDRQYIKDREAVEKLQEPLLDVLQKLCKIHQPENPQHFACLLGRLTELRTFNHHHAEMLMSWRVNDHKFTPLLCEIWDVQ
The experiment in a line: FRET activity assay (ligand mediated cofactor peptide interaction, LANCE). It is filed as biochemical. Particulars: potency range. As for the experimental part:
Determination of a ligand mediated cofactor peptide interaction to quantify ligand binding to the nuclear receptor FXR was performed as follows: Preparation of human FXR alpha ligand binding domain: The human FXRalpha LBD was expressed in E. coli strain BL21(DE3) as an N-terminally GST tagged fusion protein. The DNA encoding the FXR ligand binding domain was cloned into vector pDEST15 (Invitrogen). Expression was under control of an IPTG inducible T7 promoter. The amino acid boundaries of the ligand binding domain were amino acids 187-472 of Database entry NM_005123 (RefSeq). Expression and purification of the FXR-LBD: An overnight preculture of a transformed E. coli strain was diluted 1:20 in LB-Ampicillin medium and grown at 30° C. to an optical density of OD600=0.4-0.6. Gene expression was then induced by addition of 0.5 mM IPTG. Cells were incubated an additional 6 h at 30° C., 180 rpm. Cells were collected by centrifugation (7000×g, 7 min, room temperature). Per liter of original cell culture, cells were resuspended in 10 mL lysis buffer (50 mM Glucose, 50 mM Tris pH 7.9, 1 mM EDTA and 4 mg/mL lysozyme) and left on ice for 30 min. Cells were then subjected to sonication and cell debris removed via centrifugation (22000×g, 30 min, 4° C.). Per 10 mL of supernatant 0.5 mL prewashed Glutathione 4B sepharose slurry (Qiagen) was added and the suspension kept slowly rotating for 1 h at 4° C. Glutathione 4B sepharose beads were pelleted by centrifugation (2000×g, 15 sec, 4° C.) and washed twice in wash buffer (25 mM Tris, 50 mM KCl, 4 mM MgCl2 and 1M NaCl). The pellet was resuspended in 3 mL elution buffer per liter of original culture (elution buffer: 20 mM Tris, 60 mM KCl, 5 mM MgCl2 and 80 mM glutathione added immediately prior to use as powder). The suspension was left rotating for 15 min at 4° C., the beads pelleted and eluted again with half the volume of elution buffer than the first time. The eluates were pooled and dialysed overnight in 20 mM Hepes buffer (pH 7.5) containing 60 mM KCl, 5 mM MgCl2 as well as 1 mM dithiothreitol and 10% (v/v) glycerol. The protein was analysed by SDS-Page.
The method measures the ability of putative ligands to modulate the interaction between the purified bacterial expressed FXR ligand binding domain (LBD) and a synthetic biotinylated peptide based on residues 676-700 of SRC-1 (LCD2, 676-700). […] The ligand binding domain (LBD) of FXR was expressed as fusion protein with GST in BL-21 cells using the vector pDEST15. Cells were lysed by sonication, and the fusion proteins purified over glutathione sepharose (Pharmacia) according to the manufacturers instructions. For screening of compounds for their influence on the FXR-peptide interaction, the Perkin Elmer LANCE technology was applied. This method relies on the binding dependent energy transfer from a donor to an acceptor fluorophor attached to the binding partner of interest. For ease of handling and reduction of background from compound fluorescence LANCE technology makes use of generic fluorophore labels and time resolved detection Assays were done in a final volume of 25 μL in a 384 well plate, in a Tris-based buffer (20 mM Tris-HCl pH 7.5; 60 mM KCl, 5 mM MgCl2; 35 ng/μL BSA), containing 20-60 ng/well recombinantly expressed FXR-LBD fused to GST, 200-600 nM N-terminally biotinylated peptide, representing SRC1 aminoacids 676-700, 200 ng/well Streptavidin-xIAPC conjugate (Prozyme) and 6-10 ng/well Eu W1024—antiGST (Perkin Elmer). DMSO content of the samples was kept at 1%. After generation of the assay mix and diluting the potentially FXR modulating ligands, the assay was equilibrated for one hour in the dark at room temperature in FIA-plates black 384 well (Greiner). The LANCE signal was detected by a Perkin Elmer VICTOR2V™ Multilabel Counter. The results were visualized by plotting the ratio between the emitted light at 665 and 615 nm.
Background: TR-FRET usually uses a lanthanide donor and a delayed reading to cut background.

Data set [2] addresses T2, FXR ligand binding domain (Homo sapiens, UniProt Q96RI1).
T2 construct: expressed in transfected cells; host or cells: HEK293 cells (DSMZ), transient transfection of pCMV-BD-FXR-LBD
T2 sequence (Q96RI1 187-472 isoform Q96RI1-2): T1 sequence (Q96RI1 187-472 isoform Q96RI1-2)
The experiment in a line: Mammalian One Hybrid (M1H) Gal4 reporter assay in HEK293 cells. It is filed as cell-based. As to conditions: potency range. As to the method: Determination of a ligand mediated Gal4 promoter driven transactivation to quantify ligand binding mediated activation of FXR was performed as follows: The cDNA part encoding the FXR ligand binding domain was cloned into vector pCMV-BD (Stratagene) as a fusion to the yeast GAL4 DNA binding domain under the control of the CMV promoter. The amino acid boundaries of the ligand binding domain were amino acids 187-472 of Database entry NM_005123 (RefSeq). The plasmid pFR-Luc (Stratagene) was used as the reporter plasmid, containing a synthetic promoter with five tandem repeats of the yeast GAL4 binding sites, driving the expression of the Photinus pyralis (American firefly) luciferase gene as the reporter gene. In order to improve experimental accuracy the plasmid pRL-CMV (Promega) was cotransfected. pRL-CMV contains the constitutive CMV promoter, controlling the expression of the Renilla reniformis luciferase. All Gal4 reporter gene assays were done in HEK293 cells (obtained from DSMZ, Braunschweig, Germany) grown in MEM with L-Glutamine and Earle's BSS supplemented with 10% fetal bovine serum, 0.1 mM nonessential amino acids, 1 mM sodium pyruvate, and 100 units Penicillin/[…] per mL at 37° C. in 5% CO2. Medium and supplements were obtained from Invitrogen. For the assay, […] were plated per well in 96 well plates in 100 μL per well MEM without Phenol Red and L-Glutamine and with Earle's BSS supplemented with 10% charcoal/dextran treated FBS (HyClone, South Logan, Utah), 0.1 mM nonessential amino acids, 2 mM glutamine, 1 mM sodium pyruvate, and 100 units Penicillin/[…] per mL, incubated at 37° C. in 5% CO2. The following day the cells were >90% confluence. Medium was removed and cells were transiently transfected using 20 μL per well of a OptiMEM—polyethylene-imine-based transfection-reagent (OptiMEM, Invitrogen; Polyethyleneimine, Aldrich Cat No. 40, 827-7) including the three plasmids described above. MEM with the same composition as used for plating cells was added 2-4 h after addition of transfection mixture. Then compound stocks, prediluted in MEM were added (final vehicle concentration not exceeding 0.1%). Cells were incubated for additional 16 h before firefly and renilla luciferase activities were measured sequentially in the same cell extract using a Dual-Light-Luciferase-Assay system (Dyer et al., Anal. Biochem. 2000, 282, 158-161). All experiments were done in triplicates.
(In general: Reporter assays use an easily measured gene product as a stand-in for the process of interest.)

Data set [3] can be described thus: UV stability, irradiation at 366 nm on a DMSO thin film, LCMS. It is filed as physicochemical. As to conditions: 366 nm emission, 250 μM in DMSO thin film, FIG. 3m. As for the experimental part: A different, more rapid experimental setup was used to investigate a broader set of compounds in comparison to GW4064. The substances were dissolved in reagent grade DMSO (99.5%, Karl Roth) at a concentration of 250 μM. DMSO solution was spread over a silica glass slide to a depth of approximately 2 mm and irradiated using a UV lamp set to 366 nm emission (Benda Instruments, Wiesloch Germany) using an 8 W tube set approximately 2.5 cm from the target materials. The solution was sampled prior to irradiation (T=0 min) and at various intervals thereafter. Stocks and samples were maintained in foil wrapped tubes out of direct light. Samples were injected (2 μL) directly onto a LCMS System for analysis without any further preparation.

`O=C(O)c1ccc(C2CC2c2ccc(OCc3c(-c4c(Cl)cccc4Cl)noc3C3CC3)cc2Cl)cc1` (single isomer, unassigned; (-)) [Example 12c, (−)-4-(2-(2-chloro-4-((5-cyclopropyl-3-(2,6-dichlorophenyl)isoxazol-4-yl)methoxy)phenyl)cyclopropyl)benzoic acid]: the EC50 in data set [1] and in data set [2] was 10 to 100 nM throughout. The “photostability compared to GW4064” value in data set [3] was “higher photostability”.
Turning to `CS(=O)(=O)NC(=O)c1ccc(C2CC2c2ccc(OCc3c(-c4c(Cl)cccc4Cl)noc3C3CC3)cc2Cl)cc1` (stereo not shown) [Example 14, 4-(2-(2-chloro-4-((5-cyclopropyl-3-(2,6-dichlorophenyl)isoxazol-4-yl)methoxy)phenyl)cyclopropyl)-N-(methylsulfonyl)benzamide], the EC50 is over 100 nM in data set [1] and 10 to 100 nM in data set [2]. Further, in data set [3], the “photostability compared to GW4064” value is recorded as “higher photostability”.
As to `Clc1cc(OCc2c(-c3c(Cl)cccc3Cl)noc2C2CC2)ccc1C1CC1c1ccc(-c2nnn[nH]2)cc1` (stereo not shown) [Example 16, 4-((4-(2-(4-(1H-tetrazol-5-yl)phenyl)cyclopropyl)-3-chlorophenoxy)methyl)-5-cyclopropyl-3-(2,6-dichlorophenyl)isoxazole], the EC50 in data set [1] is over 100 nM; in data set [2] it was 10 to 100 nM. In addition, the “photostability compared to GW4064” value in data set [3] is listed as “higher photostability”.
For the compound `CC(C)(O)c1onc(-c2c(Cl)cccc2Cl)c1COc1ccc(C2CC2c2ccc(C(=O)O)cc2)c(Cl)c1` (stereo not shown) [Example 17, 4-(2-(2-chloro-4-((3-(2,6-dichlorophenyl)-5-(2-hydroxypropan-2-yl)isoxazol-4-yl)methoxy)phenyl)cyclopropyl)benzoic acid], the EC50 in data set [1] and in data set [2] was over 100 nM each time.
Turning to `CC(C)n1nc(C(=O)O)cc1C1CC1c1ccc(OCc2c(-c3c(Cl)cccc3Cl)noc2C2CC2)cc1Cl` (stereo not shown) [Example 20, 5-(2-(2-chloro-4-((5-cyclopropyl-3-(2,6-dichlorophenyl)isoxazol-4-yl)methoxy)phenyl)cyclopropyl)-1-isopropyl-1H-pyrazole-3-carboxylic acid], the EC50 in data set [1] and in data set [2] was under 10 nM throughout. In data set [3], the “photostability compared to GW4064” value is “higher photostability”.
On to `CC(C)n1nc(C(=O)O)c2ccc(C3CC3c3ccc(OCc4c(-c5c(Cl)cccc5Cl)noc4C4CC4)cc3Cl)cc21` (stereo not shown) [Example 21, 6-(2-(2-chloro-4-((5-cyclopropyl-3-(2,6-dichlorophenyl)isoxazol-4-yl)methoxy)phenyl)cyclopropyl)-1-isopropyl-1H-indazole-3-carboxylic acid], for which the EC50 in data set [1] and in data set [2] was under 10 nM in each case.
For the compound `Cc1cc(C2CC2c2ccc(OCc3c(-c4c(Cl)cccc4Cl)noc3C3CC3)cc2Cl)cc(C)c1C(=O)O` (stereo not shown) [Example 23, 4-(2-(2-chloro-4-((5-cyclopropyl-3-(2,6-dichlorophenyl)isoxazol-4-yl)methoxy)phenyl)cyclopropyl)-2,6-dimethylbenzoic acid], the EC50 in data set [1] was 10 to 100 nM; in data set [2] it was under 10 nM.
As to `O=C(O)c1ccc(C2CC2c2ccc(OCc3c(-c4ccccc4OC(F)(F)F)noc3C3CC3)cc2Cl)cc1` (stereo not shown) [Example 24], the EC50 in data set [1] and in data set [2] was over 100 nM in each case.
Regarding `O=C(O)CNC(=O)c1ccc(C2CC2c2ccc(OCc3c(-c4c(Cl)cccc4Cl)noc3C3CC3)cc2Cl)cc1` (stereo not shown) [Example 28, 2-(4-(2-(2-chloro-4-((5-cyclopropyl-3-(2,6-dichlorophenyl)isoxazol-4-yl)methoxy)phenyl)cyclopropyl)benzamido)acetic acid], the EC50 in data set [1] and in data set [2] was over 100 nM throughout.
